Measurements reported in patent publication US4797280A, “Antibiotics produced by Kibdelosporangium aridum Shearer gen. nov., sp. nov. ATCC 39323” (SmithKline Beckman Corporation, priority 1986, dated 1989).

Legend:
Kibdelosporangium aridum = test: Susceptibility of K. aridum to antibiotics, disk diffusion; assay type: cell-based; settings: disk 5 g (so in the source); zones contained a few resistant colonies
Protocol: Susceptibility of K. aridum to antibiotics was examined by placing BBL susceptibility disks on nutrient agar plates seeded with K. aridum as an overlay. Diameters of the zones of inhibition were measured after incubation for one week at 28° C.
Susceptibility to Antibiotics. […] Chlortetracycline ([…]) produced 18 mm zones of inhibition; tetracycline (5 μg) 11-12 mm zones; rifampin (5 μg) 11-15 mm zones; novobiocin (5 μg) 27-28 mm zones. All zones of inhibition contained at least a few resistant colonies.

[1] = tested on: rumen fluid from dairy cows; test: Rumen in vitro experiment with dairy cow rumen fluid; settings: about 23 hours
Protocol: A similar experiment was carried out using rumen fluid from dairy cows fed a typical dairy cow diet of two parts corn silage and three parts dairy concentrate. Specifically, strained rumen fluid (10 ml) was obtained, from an animal fed two hours earlier, via cannula and was mixed with 10 ml of a nutrient broth comprising a 2:3 mix of corn silage and dairy concentrate. After adding a selected growth promotant, the mixture was incubated at 39° C. for about 23 hours, with oscillation.

rumen inoculum = test: Rumen in vitro model; design: species or system steer

With CN(C)[C@@H]1C(O)=C(C(N)=O)C(=O)[C@@]2(O)C(O)=C3C(=O)c4c(O)ccc(Cl)c4[C@@](C)(O)[C@H]3C[C@@H]12 [Chlortetracycline] the Zone of inhibition (Kibdelosporangium aridum) was 18 mm.
For CC[C@@H](C(=O)[C@@H](C)[C@@H](O)[C@H](C)CCc1ccc(C)c(O)c1C(=O)O)[C@H]1O[C@](CC)([C@H]2CC[C@](O)(CC)[C@H](C)O2)C[C@@H]1C [Lasalocid], the “% PR” value ([1]; 0.5 ppm) was 114% OF CONTROL, the ACE ([1]; 0.5 ppm) was 95% OF CONTROL and the AMO ([1]; 0.5 ppm) was 93% OF CONTROL. The BUT ([1]; 0.5 ppm) was 94% OF CONTROL, the DLAC ([1]; 0.5 ppm) was 0% OF CONTROL and the ETOH ([1]; 0.5 ppm) was 0% OF CONTROL. The GLU ([1]; 0.5 ppm) was 0% OF CONTROL, the IBU ([1]; 0.5 ppm) was 119% OF CONTROL and the IVA ([1]; 0.5 ppm) was 102% OF CONTROL. The LLAC ([1]; 0.5 ppm) was 0% OF CONTROL, the LYS ([1]; 0.5 ppm) was 106% OF CONTROL and the NH--N ([1]; 0.5 ppm) was 106% OF CONTROL. For the same molecule, the PRO ([1]; 0.5 ppm) was 112% OF CONTROL, the TOTAL ([1]; 0.5 ppm) was 99% OF CONTROL and the VAL ([1]; 0.5 ppm) was 87% OF CONTROL. The “% PR” value ([1]; 5 ppm) was 136% OF CONTROL, the ACE ([1]; 5 ppm) was 109% OF CONTROL and the AMO ([1]; 5 ppm) was 198% OF CONTROL. The BUT ([1]; 5 ppm) was 79% OF CONTROL, the DLAC ([1]; 5 ppm) was 0% OF CONTROL and the ETOH ([1]; 5 ppm) was 0% OF CONTROL. The GLU ([1]; 5 ppm) was 0% OF CONTROL, the IBU ([1]; 5 ppm) was 164% OF CONTROL and the IVA ([1]; 5 ppm) was 91% OF CONTROL. It also gave an LLAC ([1]; 5 ppm) of 0% OF CONTROL, an LYS ([1]; 5 ppm) of 130% OF CONTROL and an NH--N ([1]; 5 ppm) of 131% OF CONTROL. For the same molecule, the PRO ([1]; 5 ppm) was 144% OF CONTROL, the TOTAL ([1]; 5 ppm) was 106% OF CONTROL and the VAL ([1]; 5 ppm) was 90% OF CONTROL. For the same molecule, the “% PR” value ([1]; 50 ppm) was 186% OF CONTROL, the ACE ([1]; 50 ppm) was 65% OF CONTROL and the AMO ([1]; 50 ppm) was 278% OF CONTROL. For the same molecule, the BUT ([1]; 50 ppm) was 62% OF CONTROL, the DLAC ([1]; 50 ppm) was 0% OF CONTROL and the ETOH ([1]; 50 ppm) was 0% OF CONTROL. For the same molecule, the GLU ([1]; 50 ppm) was 0% OF CONTROL, the IBU ([1]; 50 ppm) was 51% OF CONTROL and the IVA ([1]; 50 ppm) was 41% OF CONTROL. The LLAC ([1]; 50 ppm) was 0% OF CONTROL, the LYS ([1]; 50 ppm) was 150% OF CONTROL and the NH--N ([1]; 50 ppm) was 78% OF CONTROL. For the same molecule, the PRO ([1]; 50 ppm) was 151% OF CONTROL, the TOTAL ([1]; 50 ppm) was 81% OF CONTROL and the VAL ([1]; 50 ppm) was 53% OF CONTROL.
With CC[C@@]1([C@H]2O[C@H]([C@H]3O[C@@](O)(CO)[C@H](C)C[C@@H]3C)C[C@H]2C)CC[C@H]([C@@]2(C)CC[C@]3(C[C@H](O)[C@@H](C)[C@@H]([C@H](C)[C@H](OC)[C@@H](C)C(=O)O)O3)O2)O1 [Monensin Sodium] the “% PR” value (rumen inoculum; 0.5 ppm) was 119% OF CONTROL, the ACE (rumen inoculum; 0.5 ppm) was 78% OF CONTROL and the AMO (rumen inoculum; 0.5 ppm) was 0% OF CONTROL. It also gave a BUT (rumen inoculum; 0.5 ppm) of 100% OF CONTROL, a DLAC (rumen inoculum; 0.5 ppm) of 0% OF CONTROL and an ETOH (rumen inoculum; 0.5 ppm) of 0% OF CONTROL. It also gave an IBU (rumen inoculum; 0.5 ppm) of 138% OF CONTROL, an IVA (rumen inoculum; 0.5 ppm) of 219% OF CONTROL and an LLAC (rumen inoculum; 0.5 ppm) of 0% OF CONTROL. For the same molecule, the PRO (rumen inoculum; 0.5 ppm) was 112% OF CONTROL, the TOTAL (rumen inoculum; 0.5 ppm) was 94% OF CONTROL and the UREA (rumen inoculum; 0.5 ppm) was 0% OF CONTROL. The VAL (rumen inoculum; 0.5 ppm) was 101% OF CONTROL, the VFA (rumen inoculum; 0.5 ppm) was 94 % Control and the “% PR” value (rumen inoculum; 5 ppm) was 149% OF CONTROL. It also gave an ACE (rumen inoculum; 5 ppm) of 74% OF CONTROL, an AMO (rumen inoculum; 5 ppm) of 0% OF CONTROL and a BUT (rumen inoculum; 5 ppm) of 93% OF CONTROL. It also gave a DLAC (rumen inoculum; 5 ppm) of 0% OF CONTROL, an ETOH (rumen inoculum; 5 ppm) of 0% OF CONTROL and an IVA (rumen inoculum; 5 ppm) of 265% OF CONTROL. It also gave an LLAC (rumen inoculum; 5 ppm) of 178% OF CONTROL, a PRO (rumen inoculum; 5 ppm) of 154% OF CONTROL and a TOTAL (rumen inoculum; 5 ppm) of 104% OF CONTROL. For the same molecule, the UREA (rumen inoculum; 5 ppm) was 0% OF CONTROL, the VAL (rumen inoculum; 5 ppm) was 99% OF CONTROL and the VFA (rumen inoculum; 5 ppm) was 104 % Control. The “% PR” value (rumen inoculum; 50 ppm) was 156% OF CONTROL, the ACE (rumen inoculum; 50 ppm) was 73% OF CONTROL and the AMO (rumen inoculum; 50 ppm) was 0% OF CONTROL. For the same molecule, the BUT (rumen inoculum; 50 ppm) was 98% OF CONTROL, the DLAC (rumen inoculum; 50 ppm) was 0% OF CONTROL and the ETOH (rumen inoculum; 50 ppm) was 0% OF CONTROL. It also gave an IBU (rumen inoculum; 50 ppm) of 196% OF CONTROL, an IVA (rumen inoculum; 50 ppm) of 278% OF CONTROL and an LLAC (rumen inoculum; 50 ppm) of 999% OF CONTROL. For the same molecule, the PRO (rumen inoculum; 50 ppm) was 171% OF CONTROL, the UREA (rumen inoculum; 50 ppm) was 0% OF CONTROL and the VAL (rumen inoculum; 50 ppm) was 107% OF CONTROL. The “% PR” value ([1]; 0.5 ppm) was 117% OF CONTROL, the ACE ([1]; 0.5 ppm) was 100% OF CONTROL and the AMO ([1]; 0.5 ppm) was 115% OF CONTROL. The BUT ([1]; 0.5 ppm) was 94% OF CONTROL, the DLAC ([1]; 0.5 ppm) was 0% OF CONTROL and the ETOH ([1]; 0.5 ppm) was 0% OF CONTROL. It also gave a GLU ([1]; 0.5 ppm) of 0% OF CONTROL, an IBU ([1]; 0.5 ppm) of 104% OF CONTROL and an IVA ([1]; 0.5 ppm) of 114% OF CONTROL. The LLAC ([1]; 0.5 ppm) was 0% OF CONTROL, the LYS ([1]; 0.5 ppm) was 96% OF CONTROL and the NH--N ([1]; 0.5 ppm) was 137% OF CONTROL. It also gave a PRO ([1]; 0.5 ppm) of 122% OF CONTROL, a TOTAL ([1]; 0.5 ppm) of 104% OF CONTROL and a VAL ([1]; 0.5 ppm) of 105% OF CONTROL. For the same molecule, the “% PR” value ([1]; 5 ppm) was 146% OF CONTROL, the ACE ([1]; 5 ppm) was 102% OF CONTROL and the AMO ([1]; 5 ppm) was 238% OF CONTROL. For the same molecule, the BUT ([1]; 5 ppm) was 71% OF CONTROL, the DLAC ([1]; 5 ppm) was 0% OF CONTROL and the ETOH ([1]; 5 ppm) was 0% OF CONTROL. The GLU ([1]; 5 ppm) was 0% OF CONTROL, the IBU ([1]; 5 ppm) was 91% OF CONTROL and the IVA ([1]; 5 ppm) was 75% OF CONTROL. For the same molecule, the LLAC ([1]; 5 ppm) was 0% OF CONTROL, the LYS ([1]; 5 ppm) was 95% OF CONTROL and the NH--N ([1]; 5 ppm) was 105% OF CONTROL. For the same molecule, the PRO ([1]; 5 ppm) was 145% OF CONTROL, the TOTAL ([1]; 5 ppm) was 99% OF CONTROL and the VAL ([1]; 5 ppm) was 81% OF CONTROL. For the same molecule, the “% PR” value ([1]; 50 ppm) was 185% OF CONTROL, the ACE ([1]; 50 ppm) was 76% OF CONTROL and the AMO ([1]; 50 ppm) was 274% OF CONTROL. It also gave a BUT ([1]; 50 ppm) of 59% OF CONTROL, a DLAC ([1]; 50 ppm) of 0% OF CONTROL and an ETOH ([1]; 50 ppm) of 0% OF CONTROL. It also gave a GLU ([1]; 50 ppm) of 0% OF CONTROL, an IBU ([1]; 50 ppm) of 55% OF CONTROL and an IVA ([1]; 50 ppm) of 45% OF CONTROL. The LLAC ([1]; 50 ppm) was 0% OF CONTROL, the LYS ([1]; 50 ppm) was 120% OF CONTROL and the NH--N ([1]; 50 ppm) was 84% OF CONTROL. The PRO ([1]; 50 ppm) was 159% OF CONTROL, the TOTAL ([1]; 50 ppm) was 86% OF CONTROL and the VAL ([1]; 50 ppm) was 58% OF CONTROL.
